Like-named read-outs stand apart in the source and are kept apart here.
Tests used:
Assay type in all cases: cell-based
[1] = tested on: TE12: human esophageal cancer cells; test: Tumor cell growth inhibition (CCK-8, 72 h), TE12; conditions: 72 h incubation, read-out: IC50 for inhibiting the growth of tumor cells, TE12
Description: (§1) • OE33: human esophageal cancer cells; • SK-BR-3: human breast cancer cells; • NCI-N87: human gastric cancer cells; • NCI-H1975: human lung cancer cells; • MDA-MB-231: human breast cancer cells; • NCI-H226: human lung squamous cell carcinoma cells; • TE12: human esophageal cancer cells.
(§2) Tumor cells OE33, SK-BR-3, NCI-N87, NCI-H1975, MDA-MB-231, NCI-H226, and TE12 were cultured separately in RPMI1640 (Cellmax) supplemented with 10% fetal bovine serum (Cellmax). Tumor cells in the exponential growth phase were diluted to a concentration of 1×10^5 cells/mL with culture medium and added to 96-well cell culture plates at 100 μL per well, then returned and incubated overnight in a 37° C. incubator with 5% CO2. On the following day, the compounds were diluted to concentrations of 10000 nM, 2000 nM, 400 nM, 80 nM, 16 nM, 3.2 nM, 0.64 nM, and 0.13 nM with culture medium, and the diluted compounds were added to the 96-well cell culture plates at 2 μL per well, with three replicate wells for each concentration. Negative control and blank control groups without addition of compounds were added with 2 μL of the dilution liquid per well. After the addition of the compounds, the plates were returned to the 37° C. incubator with 5% CO2 to continue the incubation for 72 h. After the incubation, the cell culture plates were removed, and the culture medium in the plates was aspirated using a pipette. Then, 100 μL of culture medium containing 10% CCK-8 was added to each well, and the plates were incubated at 37° C. for 3 h. After the incubation, the plates were removed, kept in the dark, and placed in an […]. Absorbance was measured at 630 nm as the reference wavelength and 450 nm as the test wavelength. Based on the absorbance values, the IC50 values (Table 1) were calculated using the four-parameter logistic regression method in GraphPad.

[2] = tested on: SK-BR-3: human breast cancer cells; test: Tumor cell growth inhibition (CCK-8, 72 h), SK-BR-3; conditions: SK-BR-3 cells, 72 h incubation, read-out: IC50 for inhibiting the growth of tumor cells, SK-BR-3
Description: as §1, §2

[3] = tested on: NCI-H1975: human lung cancer cells; test: Tumor cell growth inhibition (CCK-8, 72 h), NCI-H1975; conditions: 72 h incubation, read-out: IC50 for inhibiting the growth of tumor cells, NCI-H1975
Description: as §1, §2

[4] = tested on: OE33: human esophageal cancer cells; test: Tumor cell growth inhibition (CCK-8, 72 h), OE33; conditions: 72 h incubation, read-out: IC50 for inhibiting the growth of tumor cells, OE33
Description: as §1, §2

[5] = tested on: NCI-N87: human gastric cancer cells; test: Tumor cell growth inhibition (CCK-8, 72 h), NCI-N87; conditions: 72 h incubation, read-out: IC50 for inhibiting the growth of tumor cells, NCI-N87
Description: as §1, §2

[6] = tested on: MDA-MB-231: human breast cancer cells; test: Tumor cell growth inhibition (CCK-8, 72 h), MDA-MB-231; conditions: MDA-MB-231 cells, 72 h incubation, read-out: IC50 for inhibiting the growth of tumor cells, MDA-MB-231
Description: as §1, §2

[7] = tested on: NCI-H226: human lung squamous cell carcinoma cells; test: Tumor cell growth inhibition (CCK-8, 72 h), NCI-H226; conditions: 72 h incubation, read-out: IC50 for inhibiting the growth of tumor cells, NCI-H226
Description: as §1, §2

## [2H]C([2H])([2H])NOCC(=O)N[C@H]1CCc2c(C)c(F)cc3nc4c(c1c23)Cn1c-4cc2c(c1=O)COC(=O)[C@]2(O)CC [Compound D1, N-(2′-O—(N-trideuteriomethylamino)oxyacetyl)exatecan]
[1]; Homo sapiens
  IC50: 36.7 nM
[2]; Homo sapiens
  IC50: 2.59 nM
[3]; Homo sapiens
  IC50: 65 nM
[4]; Homo sapiens
  IC50: 4.32 nM
[5]; Homo sapiens
  IC50: 2.44 nM
[6]; Homo sapiens
  IC50: 183 nM
[7]; Homo sapiens
  IC50: 22.8 nM

## CC[C@@]1(O)C(=O)OCc2c1cc1n(c2=O)Cc2c-1nc1cc(F)c(C)c3c1c2[C@@H](NC(=O)C1(ONC)CCC1)CC3 [Compound D2, N-(1′-O—(N-methylamino)oxycyclobutane-1′-carbonyl)exatecan]
[1]; Homo sapiens
  IC50: 13.6 nM
[2]; Homo sapiens
  IC50: 2.62 nM
[3]; Homo sapiens
  IC50: 26.7 nM
[4]; Homo sapiens
  IC50: 1.95 nM
[5]; Homo sapiens
  IC50: 1.11 nM
[6]; Homo sapiens
  IC50: 236 nM
[7]; Homo sapiens
  IC50: 6.35 nM

## CC[C@@]1(O)C(=O)OCc2c1cc1n(c2=O)Cc2c-1nc1cc(F)c(C)c3c1c2[C@@H](NC(=O)[C@H](C)ONC)CC3 [Compound D3, N-(2′-methyl-2′-O—(N-methylamino)oxyacetyl)exatecan]
[1]; Homo sapiens
  IC50: 18.5 nM
[2]; Homo sapiens
  IC50: 4.84 nM
[3]; Homo sapiens
  IC50: 36.9 nM
[4]; Homo sapiens
  IC50: 3.8 nM
[5]; Homo sapiens
  IC50: 1.69 nM
[6]; Homo sapiens
  IC50: 237 nM
[7]; Homo sapiens
  IC50: 7.65 nM

## [2H]C([2H])([2H])NOC([2H])([2H])C(=O)N[C@H]1CCc2c(C)c(F)cc3nc4c(c1c23)Cn1c-4cc2c(c1=O)COC(=O)[C@]2(O)CC [Compound D4, N-(2′,2′-dideuterio-2′-O—(N-trideuteriomethylamino)oxyacetyl)exatecan]
[1]; Homo sapiens
  IC50: 33.1 nM
[2]; Homo sapiens
  IC50: 4.48 nM
[3]; Homo sapiens
  IC50: 64.4 nM
[4]; Homo sapiens
  IC50: 5.56 nM
[5]; Homo sapiens
  IC50: 3.68 nM
[6]; Homo sapiens
  IC50: 425 nM
[7]; Homo sapiens
  IC50: 20.8 nM

## CC[C@@]1(O)C(=O)OCc2c1cc1n(c2=O)Cc2c-1nc1cc(F)c(C)c3c1c2[C@@H](NC(=O)C1CNOC1)CC3 (stereo partly drawn) [Compound D5, N-(isoxazolidine-4′-carbonyl)exatecan]
[1]; Homo sapiens
  IC50: 94.9 nM
[2]; Homo sapiens
  IC50: 15.4 nM
[3]; Homo sapiens
  IC50: 97.4 nM
[4]; Homo sapiens
  IC50: 22.5 nM
[5]; Homo sapiens
  IC50: 6.84 nM
[6]; Homo sapiens
  IC50: 351 nM
[7]; Homo sapiens
  IC50: 49.7 nM

## CC[C@@]1(O)C(=O)OCc2c1cc1n(c2=O)Cc2c-1nc1cc(F)c(C)c3c1c2[C@@H](NC(=O)CO)CC3 [Dxd, reference compound]
[1]
  IC50: 21.5 nM
[2]
  IC50: 9.69 nM
[3]
  IC50: 25.7 nM
[4]
  IC50: 7.01 nM
[5]
  IC50: 2.48 nM
[6]
  IC50: 320 nM
[7]
  IC50: 75.1 nM

From patent US20260200937A1, “EXATECAN HYD[…] USE THEREOF” (HANGZHOU ADCORIS BIOPHARMA CO., LTD, priority 2023, published 2026)
